Measurements published in ChEMBL document CHEMBL5338712, “Influence of chain length on the anticancer activity of the antimicrobial peptide CAMEL with fatty acid modification” (Eur J Med Chem, 2022).
Active and inactive are the calls of the source. Where a SMILES comes first, the peptide text is derived from it. The star is where a group is joined. Palmitoyl = CCCCCCCCCCCCCCCC(=O)*; Lauroyl = CCCCCCCCCCCC(=O)*; Cbz = O=C(OCc1ccccc1)*; Butyryl = CCCC(=O)*; CH2F = FC*

How the values were obtained:
B16-F10 [1] = experiment: Induction of apoptosis in mouse B16-F10 cells assessed as activation of caspase-3 incubated for 24 hrs by microplate reader analysis; format: functional, cell-based
trypsin = trypsin (Homo sapiens, UniProt P07477+P07478+P35030); experiment: Stability of compound assessed as trypsin (unknown origin)-mediated compound degradation measured upto 6 hrs by RP-HPLC analysis; format: ADME, protein assay; conditions: trypsin (enzyme solution), read-out: Drug degradation
B16-F10 [2] = experiment: Antitumor activity against mouse B16-F10 cells implanted in intratumorally dosed C57BL/6 mouse assessed as reduction in tumor volume administered for 3 days by vernier caliper method; format: functional, organism-based; conditions: time 3.0 day
B16-F10 [3] = experiment: Cytotoxicity against mouse B16-F10 cells assessed as reduction in cell viability at 1.25 to 20 uM measured after 24 hrs by MTT assay; format: functional, cell-based; conditions: dose 1.25-20 µM
B16-F10 [4] = experiment: Membrano-lytic activity in mouse B16-F10 cell membrane at 1.25 to 20 uM measured after 1 hr by LDH leakage assay; format: cell-based; conditions: dose 1.25-20 µM
B16-F10 [5] = experiment: Induction of necroptosis in mouse B16-F10 cells assessed as cell death at 5 to 20 uM measured for 4 to 24 hrs in presence of Nec-1; format: functional, cell-based; conditions: dose 5-20 µM, time 4-24 hrs
B16-F10 [6] = experiment: Antiproliferative activity against mouse B16-F10 cells assessed as inhibition of cell viability by measuring ATP level at 10 uM measured for 4 to 24 hrs; format: functional, cell-based; conditions: time 4-24 hrs
B16-F10 [7] = experiment: Induction of cell membrane disruption in mouse B16-F10 cells at 20 uM measured for 30 mins by PI staining based microplate reader assay
[8] = Toxicity in C57BL/6 […] mouse implanted with mouse B16-F10 cells assessed as animal death administered intratumorally; format: cell-based; conditions: in vivo, other, route it(Intratumoral)
B16-F10 [9] = experiment: Induction of morphological changes in mouse B16-F10 cells assessed as cell rounding at 20 uM incubated for 30 mins by microscopic analysis; format: functional, cell-based
B16-F10 [10] = experiment: Membrano-lytic activity in mouse B16-F10 cell membrane at 20 uM by LDH leakage assay; format: cell-based; conditions: time 0.5-4 hrs, TDE = time-dependent effect
B16-F10 [11] = experiment: Disruption of membrane integrity in mouse B16-F10 cells at 10 uM measured at 4 to 24 hrs by propidium iodide staining based laser scanning microscopic analysis; format: cell-based; conditions: time 4-24 hrs
B16-F10 [12] = experiment: Membrano-lytic activity in mouse B16-F10 cell membrane measured after 1 hr by LDH leakage assay; format: cell-based; conditions: dose 1.25-20 µM
B16-F10 [13] = experiment: Cytotoxicity against mouse B16-F10 cells assessed as reduction in cell viability at 1.25 to 20 uM measured after 72 hrs by MTT assay; format: functional, cell-based; conditions: dose 1.25-20 µM
B16-F10 [14] = experiment: Induction of ROS production in mouse B16-F10 cells at 10 uM measured for 0.5 to 4 hrs by MitoSOX red dye based microplate reader analysis; format: functional, cell-based; conditions: time 0.5-4 hrs
B16-F10 [15] = experiment: Induction of morphological changes in mouse B16-F10 cells assessed as cell bursting at 20 uM incubated for 30 mins by microscopic analysis; format: functional, cell-based
B16-F10 [16] = experiment: Induction of necroptosis in mouse B16-F10 cells assessed as increase in ROS level; format: functional, cell-based
B16-F10 [17] = experiment: Induction of mitochondrial membrane potential loss in mouse B16-F10 cells assessed as decrease in fluorescence intensity at 10 uM measured at 0.5 to 4 hrs by flow cytometry analysis; format: functional, cell-based; conditions: time 0.5-4 hrs
B16-F10 [18] = experiment: Induction of morphological changes in mouse B16-F10 cells assessed as cell swelling at 20 uM incubated for 30 mins by microscopic analysis; format: functional, cell-based
B16-F10 [19] = experiment: Induction of cell cycle arrest in mouse B16-F10 cells assessed as accumulation at G0/G1 phase at 10 uM and measured after 24 hrs PI staining based by flow cytometry; format: functional
B16-F10 [20] = experiment: Induction of necrotic cell death in mouse B16-F10 at 10 uM measured after 1 to 24 hrs; format: functional, cell-based; conditions: time 1-24 hrs
B16-F10 [21] = experiment: Induction of apoptosis in mouse B16-F10 cells assessed as decrease in ATP level; format: functional, cell-based
[22] = Self-assembly behavior of compound in saline solution assessed as critical micelle concentration by spectrophotometer analysis; format: physicochemical; conditions: buffer
B16-F10 [23] = experiment: Induction of mitochondrial membrane potential loss in mouse B16-F10 cells at 10 uM by flow cytometry analysis; format: functional, cell-based; conditions: time 0.5-4 hrs, TDE = time-dependent effect
B16-F10 [24] = experiment: Cytotoxicity against mouse B16-F10 cells assessed as induction of cell death measured for 4 to 24 hrs by MTT assay; format: functional, cell-based; conditions: time 4-24 hrs
B16-F10 [25] = experiment: Cytotoxicity against mouse B16-F10 cells assessed as reduction in cell viability at 1.25 to 20 uM by MTT assay; format: functional, cell-based; conditions: dose 1.25-20 µM, time 1-72 hrs, TDE = time-dependent effect
B16-F10 [26] = experiment: Cytotoxicity against mouse B16-F10 cells assessed as reduction in cell viability measured after 1 hrs by MTT assay; format: functional, cell-based; conditions: dose 1.25-20 µM
B16-F10 [27] = experiment: Induction of ROS production in mouse B16-F10 cells at 10 uM measured for 0.5 to 4 hrs by DCFH-DA dye based microplate reader analysis; format: functional, cell-based; conditions: time 0.5-4 hrs
Staphylococcus aureus = experiment: Antibacterial activity against Staphylococcus aureus ATCC […] assessed as reduction in bacterial growth measured for 18 hrs by serial dilution method; format: functional
Escherichia coli = experiment: Antibacterial activity against Escherichia coli ATCC 25922 assessed as reduction in bacterial growth measured for 18 hrs by serial dilution method; format: functional
B16-F10 [28] = experiment: Membrano-lytic activity in mouse B16-F10 cell membrane at 20 uM measured at 1 hr by LDH leakage assay; format: cell-based
B16-F10 [29] = experiment: Induction of cell membrane disruption in mouse B16-F10 cells at 20 uM by PI staining based microplate reader assay; conditions: time 30.0 min, TDE = time-dependent effect
B16-F10 [30] = experiment: Membrano-lytic activity in mouse B16-F10 cell membrane at 1.25 to 20 uM measured after 4 hr by LDH leakage assay; format: cell-based; conditions: dose 1.25-20 µM

CCCCCCCCCCCCCCCC(=O)N[C@@H](CCCCN)C(=O)N[C@@H](Cc1c[nH]c2ccccc12)C(=O)N[C@@H](CCCCN)C(=O)N[C@@H](CC(C)C)C(=O)N[C@@H](Cc1ccccc1)C(=O)N[C@@H](CCCCN)C(=O)N[C@@H](CCCCN)C(=O)N[C@H](C(=O)NCC(=O)N[C@@H](C)C(=O)N[C@H](C(=O)N[C@@H](CC(C)C)C(=O)N[C@@H](CCCCN)C(=O)N[C@H](C(=O)N[C@@H](CC(C)C)C(N)=O)C(C)C)C(C)C)[C@@H](C)CC (Palmitoyl-KWKLFKKIGAVLKVL-NH2)
> 128 µM: MIC (Staphylococcus aureus) | MIC (Escherichia coli)
inactive: Activity (B16-F10 [1]) | Activity (B16-F10 [19]) | Activity (B16-F10 [21]) | Activity (B16-F10 [24])
active: Activity (B16-F10 [2]) | Activity (B16-F10 [3]) | Activity (B16-F10 [4]) | Activity (B16-F10 [5]) | Activity (B16-F10 [6]) | Activity (B16-F10 [7]) | Activity (B16-F10 [9]) | Activity (B16-F10 [10]) Tde | Activity (B16-F10 [11]) | Activity (B16-F10 [12]) Dose-Dependent Effect | Activity (B16-F10 [13]) | Activity (B16-F10 [14]) | Activity (B16-F10 [15]) | Activity (B16-F10 [16]) | Activity (B16-F10 [17]) | Activity (B16-F10 [18]) | Activity (B16-F10 [20]) | Activity (B16-F10 [23]) Tde | Activity (B16-F10 [25]) Tde | Activity (B16-F10 [26]) Dose-Dependent Effect | Activity (B16-F10 [27])
4.95 µM: CMC [22]
Non-Toxic: Activity [8]
8.7%: metabolised at 6 h (trypsin)

CCCCCCCCCCCC(=O)N[C@@H](CCCCN)C(=O)N[C@@H](Cc1c[nH]c2ccccc12)C(=O)N[C@@H](CCCCN)C(=O)N[C@@H](CC(C)C)C(=O)N[C@@H](Cc1ccccc1)C(=O)N[C@@H](CCCCN)C(=O)N[C@@H](CCCCN)C(=O)N[C@H](C(=O)NCC(=O)N[C@@H](C)C(=O)N[C@H](C(=O)N[C@@H](CC(C)C)C(=O)N[C@@H](CCCCN)C(=O)N[C@H](C(=O)N[C@@H](CC(C)C)C(N)=O)C(C)C)C(C)C)[C@@H](C)CC (Lauroyl-KWKLFKKIGAVLKVL-NH2)
inactive: Activity (B16-F10 [1]) | Activity (B16-F10 [19]) | Activity (B16-F10 [21]) | Activity (B16-F10 [24])
18.9%: metabolised at 6 h (trypsin)
8 µM: MIC (Staphylococcus aureus) | MIC (Escherichia coli)
active: Activity (B16-F10 [2]) | Activity (B16-F10 [3]) | Activity (B16-F10 [5]) | Activity (B16-F10 [6]) | Activity (B16-F10 [28]) | Activity (B16-F10 [7]) | Activity (B16-F10 [9]) | Activity (B16-F10 [12]) Dose-Dependent Effect | Activity (B16-F10 [14]) | Activity (B16-F10 [15]) | Activity (B16-F10 [16]) | Activity (B16-F10 [17]) | Activity (B16-F10 [29]) Tde | Activity (B16-F10 [18]) | Activity (B16-F10 [20]) | Activity (B16-F10 [23]) Tde | Activity (B16-F10 [30]) | Activity (B16-F10 [26]) Dose-Dependent Effect | Activity (B16-F10 [27])
7.16 µM: CMC [22]
Non-Toxic: Activity [8]

COC(=O)C[C@H](NC(=O)[C@H](C)NC(=O)[C@@H](NC(=O)OCc1ccccc1)C(C)C)C(=O)CF (Cbz-Val-Ala-Asp(OMe)-CH2F)
active: Activity (B16-F10 [24])

CCCC(=O)N[C@@H](CCCCN)C(=O)N[C@@H](Cc1c[nH]c2ccccc12)C(=O)N[C@@H](CCCCN)C(=O)N[C@@H](CC(C)C)C(=O)N[C@@H](Cc1ccccc1)C(=O)N[C@@H](CCCCN)C(=O)N[C@@H](CCCCN)C(=O)N[C@H](C(=O)NCC(=O)N[C@@H](C)C(=O)N[C@H](C(=O)N[C@@H](CC(C)C)C(=O)N[C@@H](CCCCN)C(=O)N[C@H](C(=O)N[C@@H](CC(C)C)C(N)=O)C(C)C)C(C)C)[C@@H](C)CC (Butyryl-KWKLFKKIGAVLKVL-NH2)
active: Activity (B16-F10 [3]) | Activity (B16-F10 [4]) | Activity (B16-F10 [12]) Dose-Dependent Effect | Activity (B16-F10 [26]) Dose-Dependent Effect
100%: metabolised at 6 h (trypsin)
4 µM: MIC (Escherichia coli)
2 µM: MIC (Staphylococcus aureus)
